{"source": "patent US8138153B2", "about": "“Potassium channel modulator peptide” (National Centre for Biological Sciences, priority 2004, dated 2012)", "test_system": "K^+ currents (voltage dependent potassium channels) in DRG neurons", "assay_type": "cell-based, Wistar rats", "note": "“Also recorded” adds a separate entry of the source."}
{"substance": "FHGGSWYRFPWGY-NH2 [Mo1659]", "values": [{"measurement": "Effect on sustained (non-inactivating) K^+ current component", "value": "predominantly affects the sustained K^+ current component; also recorded: specifically acts on the non-inactivating K^+ currents"}]}
